Data on 29 molecules can be found in patent publication US8759535B2, “Substituted fused imidazole derivatives, pharmaceutical compositions, and methods of use thereof” (High Point Pharmaceuticals, LLC, priority 2010, dated 2014).

Each structure is given as a SMILES string. Where a name gives a salt, the structure may show the parent alone.

The first assay concerns HMOX1. The assay can be described thus: HMOX1 Protein Assay (immunostaining of HO-1 in NHLF cells, GE InCell 1000). Type of assay: cell-based. Particulars: Homo sapiens, fold change above DMSO treated cells, 3 μM compound (asterisk), 16 h. The method, boiled down: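 NHLF cells seeded overnight in FGM-2, then exposed to compound or DMSO vehicle for 16 h, fixed, and immunostained for HO-1 with Hoechst nuclear counterstain; imaged on InCell 1000. Values are fold change over DMSO-treated cells, generally at 5 μM (0.8% DMSO), with asterisked entries at 3 μM.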
In general, fold induction refers to the signal under treatment as a multiple of the control signal. Low values mean a weak induction, high ones a strong induction. Regarding `CN1CCN(CCCNC(=O)c2ccc3c(c2)nc(Nc2nc4ccc(Cl)cc4s2)n3C)CC1` [Example 356, 2-(6-Chloro-benzothiazol-2-ylamino)-1-methyl-1H-benzoimidazole-5-carboxylic acid [3-(4-methyl-piperazin-1-yl)-propyl]-amide], the fold induction at 3 µM amounted to 19. On the same count and under the same terms, for `CO[C@H]1CCN(C(=O)CNC(=O)c2ccc3c(c2)nc(Nc2nc4ccc(C(F)(F)F)cc4s2)n3C)C1` [Example 410, 1-Methyl-2-(6-trifluoromethyl-benzothiazol-2-ylamino)-1H-benzoimidazole-5-carboxylic acid [2-((S)-3-methoxy-pyrrolidin-1-yl)-2-oxo-ethyl]-amide] the value was 24.7; for `CCN(CC)CCCNC(=O)c1ccc2c(c1)nc(Nc1nc3ccc(Cl)cc3s1)n2C` [Example 352, 2-(6-Chloro-benzothiazol-2-ylamino)-1-methyl-1H-benzoimidazole-5-carboxylic acid (3-diethylamino-propyl)-amide], 20; for `CN(C)C(=O)CCNC(=O)c1ccc2c(c1)nc(Nc1nc3ccc(Cl)cc3s1)n2C` [Example 371, 2-(6-Chloro-benzothiazol-2-ylamino)-1-methyl-1H-benzoimidazole-5-carboxylic acid (2-dimethylcarbamoyl-ethyl)-amide], 29. `Cn1c(Nc2nc3ccc(Cl)cc3s2)nc2cc(C(=O)NCC(=O)N3CCC[C@H](O)C3)ccc21` [Example 433, 2-(6-Chloro-benzothiazol-2-ylamino)-1-methyl-1H-benzoimidazole-5-carboxylic acid [2-((S)-3-hydroxy-piperidin-1-yl)-2-oxo-ethyl]-amide] displayed a fold induction at 3 µM of 29.

`Cn1c(Nc2nc3ccc(C(F)(F)F)cc3s2)nc2cc(C(=O)NCCF)ccc21` [Example 210, 1-Methyl-2-(6-trifluoromethyl-benzothiazol-2-ylamino)-1H-benzoimidazole-5-carboxylic acid (2-fluoro-ethyl)-amide] displayed a fold induction at 3 µM of 29.9. The same measure, in the same setting: for `Cn1c(Nc2nc3ccc(Cl)cc3s2)nc2cc(C(=O)NN3CCOCC3)ccc21` [Example 321, 2-(6-Chloro-benzothiazol-2-ylamino)-1-methyl-1H-benzoimidazole-5-carboxylic acid morpholin-4-ylamide] the value was 15.3; for `Cn1c(Nc2nc3ccc(OC(F)(F)F)cc3s2)nc2cc(C(=O)NCCCN)ccc21` [Example 344, 1-Methyl-2-(6-trifluoromethoxy-benzothiazol-2-ylamino)-1H-benzoimidazole-5-carboxylic acid (3-amino-propyl)-amide hydrochloride], 25.7.

In turn, `C[C@H](NC(=O)c1ccc2c(c1)nc(Nc1nc3ccc(Cl)cc3s1)n2C)C(=O)N1CCN(C)CC1` [Example 464, 2-(6-Chloro-benzothiazol-2-ylamino)-1-methyl-1H-benzoimidazole-5-carboxylic acid [(S)-1-methyl-2-(4-methyl-piperazin-1-yl)-2-oxo-ethyl]-amide] showed a fold induction at 3 µM of 27.2.

The assay is the same for the next values; noted with them: Homo sapiens, fold change above DMSO treated cells, 5 μM compound, 16 h.
For `COCCn1c(Nc2nc3ccc(Cl)cc3s2)nc2cc(C(=O)NCC(=O)N3CC[C@@H](O)C3)ccc21` [Example 404, 2-(6-Chloro-benzothiazol-2-ylamino)-1-(2-methoxy-ethyl)-1H-benzoimidazole-5-carboxylic acid [2-((R)-3-hydroxy-pyrrolidin-1-yl)-2-oxo-ethyl]-amide], the fold induction at 5 µM was found to be 26.1. On the same count and under the same terms, for `CNC(=O)CNC(=O)c1ccc2c(c1)nc(Nc1nc3ccc(OC(F)(F)F)cc3s1)n2C` [Example 139, 1-Methyl-2-(6-trifluoromethoxy-benzothiazol-2-ylamino)-1H-benzimidazole-5-carboxylic acid methylcarbamoylmethyl-amide] the value was 18.8.

Consider `Cn1c(Nc2nc3ccc(OC(F)(F)F)cc3s2)nc2cc(C(=O)NCCC3CCOCC3)ccc21` [Example 264, 1-Methyl-2-(6-trifluoromethoxy-benzothiazol-2-ylamino)-1H-benzoimidazole-5-carboxylic acid [2-(tetrahydro-pyran-4-yl)-ethyl]-amide], for which the fold induction at 5 µM came to 22.9. On the same count and under the same terms, under `CCNC(=O)c1cc2nc(Nc3nc4ccc(OC(F)(F)F)cc4s3)n(C)c2cc1OC` [Example 64, 6-Methoxy-1-methyl-2-(6-trifluoromethoxy-benzothiazol-2-ylamino)-1H-benzoimidazole-5-carboxylic acid ethylamide] stands 18.9; under `COc1cc2c(cc1C(=O)NCC(C)O)nc(Nc1nc3ccc(OC(F)(F)F)cc3s1)n2C` (centres unmarked) [Example 68, 6-Methoxy-1-methyl-2-(6-trifluoromethoxy-benzothiazol-2-ylamino)-1H-benzoimidazole-5-carboxylic acid (2-hydroxy-propyl)-amide], 21.1. `Cn1c(Nc2nc3ccc(OC(F)(F)F)cc3s2)nc2cc(C(=O)NCC(=O)N3C[C@H](O)[C@@H](O)C3)ccc21` [Example 407, 1-Methyl-2-(6-trifluoromethoxy-benzothiazol-2-ylamino)-1H-benzoimidazole-5-carboxylic acid [2-((3S,4S)-3,4-dihydroxy-pyrrolidin-1-yl)-2-oxo-ethyl]-amide] had a fold induction at 5 µM of 7.73.

Molecule `Cn1c(Nc2nc3ccc(OC(F)(F)F)cc3s2)nc2cc(C(=O)NCCOCCF)ccc21` [Example 47, 1-Methyl-2-(6-trifluoromethoxy-benzothiazol-2-ylamino)-1H-benzoimidazole-5-carboxylic acid [2-(2-fluoro-ethoxy)-ethyl]-amide] registered a fold induction at 5 µM of 11.3. Consider `Cn1c(Nc2nc3ccc(OC(F)(F)F)cc3s2)nc2cc(C(=O)NCCOCCO)cnc21` [Example 238, 3-Methyl-2-(6-trifluoromethoxy-benzothiazol-2-ylamino)-3H-imidazo[4,5-b]pyridine-6-carboxylic acid [2-(2-hydroxy-ethoxy)-ethyl]-amide], for which the fold induction at 5 µM turned out to be 33. Still for that read-out and setting: under `Cn1c(Nc2nc3ccc(OC(F)(F)F)cc3s2)nc2cc(C(=O)NCCN3CCNC3=O)ccc21` [Example 330, 1-Methyl-2-(6-trifluoromethoxy-benzothiazol-2-ylamino)-1H-benzoimidazole-5-carboxylic acid [2-(2-oxo-imidazolidin-1-yl)-ethyl]-amide] stands 37.7; under `Cn1c(Nc2nc3ccc(OC(F)(F)F)cc3s2)nc2ccc(C#N)cc21` [Example 195, 1-Methyl-2-(6-trifluoromethoxy-benzothiazol-2-ylamino)-1H-benzoimidazole-6-carbonitrile], 4.4; under `CC(O)CNC(=O)c1ccc2c(c1)nc(Nc1nc3ccc(OC(F)(F)F)cc3s1)n2C` (centres unmarked) [Example 21, 1-Methyl-2-(6-trifluoromethoxy-benzothiazol-2-ylamino)-1H-benzoimidazole-5-carboxylic acid (2-hydroxy-propyl)-amide], 19.6. With `Cn1c(Nc2nc3ccc(OC(F)(F)F)cc3s2)nc2cc(C(=O)NCC(=O)N3CCC(O)CC3)ccc21` [Example 435, 1-Methyl-2-(6-trifluoromethoxy-benzothiazol-2-ylamino)-1H-benzoimidazole-5-carboxylic acid [2-(4-hydroxy-piperidin-1-yl)-2-oxo-ethyl]-amide], the fold induction at 5 µM was 30.2. The molecule `Cn1c(Nc2nc3ccc(OC(F)(F)F)cc3s2)nc2cc(C(=O)NCC(=O)N3CCC(C(F)(F)F)CC3)ccc21` [Example 449, 1-Methyl-2-(6-trifluoromethoxy-benzothiazol-2-ylamino)-1H-benzoimidazole-5-carboxylic acid [2-oxo-2-(4-trifluoromethyl-piperidin-1-yl)-ethyl]-amide] yielded a fold induction at 5 µM of 23.

Molecule `Cn1c(Nc2nc3ccc(OC(F)(F)F)cc3s2)nc2cc(C(=O)NCc3nccs3)ccc21` [Example 96, 1-Methyl-2-(6-trifluoromethoxy-benzothiazol-2-ylamino)-1H-benzoimidazole-5-carboxylic acid (thiazol-2-ylmethyl)-amide] gave a fold induction at 5 µM of 12. The same measure, in the same setting: for `Cn1c(Nc2nc3ccc(OC(F)(F)F)cc3s2)nc2cc(C(=O)N3CCN(CCO)CC3)ccc21` [Example 305, [4-(2-Hydroxy-ethyl)-piperazin-1-yl]-[1-methyl-2-(6-trifluoromethoxy-benzothiazol-2-ylamino)-1H-benzoimidazol-5-yl]-methanone] the value was 41.7. Turning to `Cn1c(Nc2nc3ccc(OC(F)(F)F)cc3s2)nc2cc(C(=O)NCCn3cccn3)ccc21` [Example 328, 1-Methyl-2-(6-trifluoromethoxy-benzothiazol-2-ylamino)-1H-benzoimidazole-5-carboxylic acid (2-pyrazol-1-yl-ethyl)-amide], the fold induction at 5 µM turned out to be 29.4.

Take `CCNC(=O)c1ccc2c(c1)nc(Nc1nc3ccc(C(F)(F)F)cc3s1)n2C` [Example 26, 1-Methyl-2-(6-trifluoromethyl-benzothiazol-2-ylamino)-1H-benzoimidazole-5-carboxylic acid ethylamide]: the fold induction at 5 µM came out at 15.5. Still for that read-out and setting: for `Cn1c(Nc2nc3ccc(Cl)cc3s2)nc2ccc(C(=O)NCCOCCO)cc21` [Example 288, 2-(6-Chloro-benzothiazol-2-ylamino)-3-methyl-3H-benzoimidazole-5-carboxylic acid [2-(2-hydroxy-ethoxy)-ethyl]-amide] the value was 47; for `Cn1c(Nc2nc3ccc(Cl)cc3s2)nc2cc(C(=O)NCCCO)ccc21` [Example 214, 2-(6-Chloro-benzothiazol-2-ylamino)-1-methyl-1H-benzoimidazole-5-carboxylic acid (3-hydroxy-propyl)-amide], 42.4; for `Cn1c(Nc2nc3ccc(OC(F)(F)F)cc3s2)nc2cc(C(=O)NCC(=O)OC(C)(C)C)ccc21` [Example 91, {[1-Methyl-2-(6-trifluoromethoxy-benzothiazol-2-ylamino)-1H-benzoimidazole-5-carbonyl]-amino}-acetic acid tert-butyl ester], 10.1.
